Test results from patent US9738878B2, “HIV-1 integrase derived peptides and compositions” (priority 2008, dated 2017).
No end group written: not given here.

Columns and labels:
Rev-GFP = experiment: ELISA-based binding assay, Rev-GFP on peptide-coated plates; parameters: species or system HIV-1; conditions: screen of IN peptide library
Experimental: (§1) Protein-peptide binding was estimated using an ELISA-based binding assay as described previously (Rosenbluh et al., 2006, Anal Biochem 352, 157-168). Briefly, Maxisorp plates (Nunc) were incubated at room temperature for 2 h with 200 μl of 10 μg/ml synthetic peptide in carbonate buffer. After incubation, the solution was removed, the plates were washed three times with PBS, and 200 μl of 10% BSA in PBS (w/v) was added for 2 h at room temperature. […] Following three washes with PBS, the concentration of bound biotinylated molecules was estimated after the addition of streptavidin-horseradish peroxidase (HRP) conjugate (Sigma), as described previously (Melchior et al., 1993, J Cell Biol 123, 1649-1659). The concentration of bound protein molecules was estimated after the addition of anti-GFP mouse antibody (Santa Cruz) which then was interacted with rabbit anti-mouse IgG antibody conjugated to HRP. The enzymatic activity of HRP was estimated by monitoring the product's optical density (OD) at 490 nm using an ELISA plate reader (Tecan Sunrise). Each measurement was performed at least in duplicate.
(§2) Selection of peptide sequences that interact with the Rev protein, Rev-derived peptides, and the IN itself was made by screening of an N peptide library (NIH AIDS Research and Reference Reagent Program, Division of AIDS, NIAID, NIH: HIV-1 Consensus B Pol (15-mer) peptides—Complete Set from DAIDS, NIAID), using an ELISA-based assay system.
(§3) FIG. 1: 1A—Rev-GFP or GFP alone were incubated in ELISA plates coated with either INr-1 (♦, ⋄, respectively), INr-2 (▪, □, respectively) or INS (▴, Δ, respectively) and binding was determined as described above. 1B—The IN protein was first bound to the ELISA plate and then incubated with Rev-GFP to obtain a Rev-IN complex. The complex was then incubated with either one of the INr peptides or the INS peptide at the designated Rev-GFP:peptide ratio. Wells were then washed and the amount of bound Rev-GFP was determined by mouse anti-GFP antibody and secondary rabbit anti-mouse HRP-conjugated antibody. […]

Rev 13-23 = biological target: T1, Rev 13-23 (Human immunodeficiency virus type 1 group M subtype B, UniProt P04618); experiment: ELISA-based binding assay, biotinylated-BSA-Rev 13-23 conjugate on peptide-coated plates; parameters: species or system HIV-1
T1 construct: biotinylated-BSA-Rev 13-23 or Rev 53-67 conjugates
Experimental: as §1, §2, §3

Rev 53-67 = biological target: T2, Rev 53-67 (Human immunodeficiency virus type 1 group M subtype B, UniProt P04618); experiment: ELISA-based binding assay, biotinylated-BSA-Rev 53-67 conjugate on peptide-coated plates; parameters: species or system HIV-1
T2 construct: biotinylated-BSA-Rev 13-23 or Rev 53-67 conjugates
Experimental: as §1, §2, §3

IN [1] = biological target: T3, IN (Human immunodeficiency virus type 1 group M subtype B, UniProt P12497); experiment: IN enzymatic activity assay; assay type: biochemical, HIV-1; conditions: for integrase activity inhibited by Rev-derived peptide, restoration: molar ratio 1:10 (Rev peptide:INr peptide)
T3 construct: The histidine-tagged IN expression vector was a generous gift from Dr. A. Engelman; histidine tag; made in house
Experimental: The IN enzymatic activity assay was performed using a previously described assay system (Craigie et al., 1991, Nucleic Acids Res 19, 2729-2734, Hwang et al., 2000, Nucleic Acids Res 28, 4884-4892). Briefly, the oligonucleotide substrate consisted of one oligo (5′-[…]-3′) labeled with biotin at the 3′ end and the other oligo (5′-[…]-3′) labeled with digoxigenin at the 5′ end. When inhibition was studied, the IN was preincubated with the peptide or protein for 15 min prior to addition of the DNA substrate.
FIG. 2 (A) Rev-GFP (dark green) or GFP (turquoise) were incubated at different molar ratios with IN (390 nM) and the IN enzymatic activity was determined as described above. (B) Rev-GFP was preincubated with the indicated INS peptide at a molar ratio of 5:1 (peptide:Rev-GFP) and the resultant mixture was added to a solution containing IN to give a molar ratio of 1:200 and 1:400 (IN:Rev-GFP). Following an incubation period, IN activity was estimated as described above. (C) Same as (B) but with the INrs peptides.
FIG. 3 A-C IN (390 nM) was incubated with 50 μM of the Rev-derived peptides (1:300 IN:Rev-derived peptide, Rev13-23 or Rev 53-67) and then the INS peptide was added at different molar ratios ranging from 10:1 to 1:10 (Rev peptide:INS peptide) (A) IN (390 nM) was incubated with 50 μM of the Rev-derived peptides (1:300 IN:Rev-derived peptide), (Rev13-23 (B) and Rev 53-67 (C)) and then the INr peptides were added at different molar ratios ranging from 10:1 to 1:10 (Rev peptide:INr peptide).

IN [2] = biological target: T3, IN; experiment: ELISA-based binding assay, IN protein; parameters: species or system HIV-1
Experimental: Each measurement was performed at least in duplicate.
Selection of peptide sequences that interact with the Rev protein, Rev-derived peptides, and the IN itself was made by screening of an N peptide library (NIH AIDS Research and Reference Reagent Program, Division of AIDS, NIAID, NIH: HIV-1 Consensus B Pol (15-mer) peptides—Complete Set from DAIDS, NIAID), using an ELISA-based assay system. […] This observation further confirmed that the sequence of the NS and INrs peptides within the N protein mediate the interaction with the Rev protein. The NS peptide interacted with both Rev 13-23 and Rev 53-67 peptides while Nr-1 and Nr-2 interacted with the Rev 53-67 and Rev 13-23 peptides respectively (FIG. 1D and Table 1). […] This was inferred from experiments showing that biotinylated-BSA-Rev 13-23 or Rev 53-67 conjugates were able to interact with NS or INrs peptides-coated plates (FIGS. 1C and 1D).

HeLa cells = experiment: Cell-penetration experiments, fluorescein-labeled peptides, confocal microscopy; assay type: cell-based; conditions: fluorescein-labeled peptide 10 μM
Experimental: Fluorescein-labeled peptides at a final concentration of 10 μM in PBS were incubated with HeLa cells for 1 h at 37° C.
The cells were then washed three times with PBS and visualized by a confocal microscope. […] (C) same as (B) but in H9 lymphocytes

HeLa TZM-b1 cells = experiment: Cell viability, MTT assay; assay type: cell-based; conditions: up to about 62 μM
HIV-1 DNA integration = experiment: Copy numbers of HIV-1 DNA integrated into cellular genome, real-time PCR; assay type: cell-based; conditions: H9 cells, 24 hours post infection, single cycle of infection, Δenv/VSV-G HIV-1
Experimental: During the second-round PCR, the first-round PCR product could be specifically amplified by using the tag-specific primer (tag-F 5′-[…]-3′) and the LTR primer (LTR-R 5′-[…]-3′) designed by PrimerExpress (Applied Biosystems) using default settings. The second-round PCR was performed on 1/25th of the first-round PCR product in a mixture containing 300 nM of each primer, 12.5 μl of 2λ SYBR Green master mixture (Applied Biosystems) at a final volume of 25 μl, run on an ABI PRIZM 7700 (Applied Biosystems).
For generation a standard calibration curve, the SVC21 plasmid containing the full-length HIV-1HXB2 viral DNA was used as a template. In the first-round PCR, the LTR-TAG-F and LTR-R primers were used and the second-round PCR was performed using the tag-F and LTR-R primers. The standard linear curve was in the range of 5 ng to 0.25 fg (R=0.99). DNA samples were assayed with quadruplets of each sample. The cell equivalents in the sample DNA were calculated based on amplification of the 18S gene by real-time PCR as described in (Field et al, 2002, Biochem J 368, 855-864).
. (B) H9 T-lymphoid cells were incubated with the indicated peptides (12.5 μM) or AZT (2 μM) and following HIV-1 infection, the integrated viral DNA/cell was assessed by real-time PCR following a single cycle of infection at a MOI of 5 of Δenv/VSV-G HIV-1.

[3] = Survival of HIV-1 infected and uninfected Hela cells; assay type: cell-based; conditions: human, uninfected HeLa cells, read-out: intact viable uninfected Hela cells
Experimental: FIG. 7 Percentage of viable infected and uninfected Hela cells normalized every two days to the number of cells in the non treated non infected cells sample. Cells were infected with WT HIV-1 at MOI of 0.01 and the treated cells were added 12.5 μM of INS.

Rev-IN complex = conditions: peptide added to preformed complex
HIV-1 [4] = conditions: H9 and Sup-T1 cells, peptide 12.5 μM
Experimental: Cultured lymphocytes (1×10^5) were centrifuged for 5 min at 2000 rpm and after removal of the supernatant, the cells were resuspended in 0.2 to 0.5 ml of RPMI 1640 medium containing virus at a multiplicity of infection (MOI) of 0.01, 0.1 and 5. Following absorption for 2 h at 37° C., the cells were washed to remove unbound virus and then incubated at the same temperature for an additional 1 to 8 days.
Lymphoid cells were incubated with the indicated peptides for 2 h and following infection with wild-type HIV-1 at a MOI of 0.01 (as described above), the cells were incubated for 8 days, or 48 h at a MOI of 1. The amount of p24 protein was estimated in the cell medium every 2 days exactly as described previously.
The amount of viral P24 (A and B) and virus titer (C and D) were determined every 2 days by ELISA and MAGI assay (Kimpton 1992, J Virol 66, 2232-2239), respectively. The concentration of azidothymidine (AZT) used was 2 μM.

HIV-1 [5] = test system: HIV-1
Experimental: Quantitative titration of HIV-1 was carried out using the MAGI assay, as described by Kimpton and Emerman (J Virol 1992, 66, 2232-2239). […] Two days post-infection (PI), cultured cells were fixed and ƒl-galactosidase was estimated as described above. Blue cells were counted under a light microscope at 200× magnification.
The concentration of azidothymidine (AZT) used was 2 μM.

[6] = test system: HIV-1 infected lymphocyte cells; experiment: Lysis of HIV-1 infected cells after one cycle of infection, MTT; conditions: 62.5-150 μM, ΔENV/VSV-G HIV-1 MOI 10, MTT 48 h post infection

Sequence | interaction with Rev-GFP (Rev-GFP) | interaction with Rev 13-23 peptide (Rev 13-23) | interaction with Rev 53-67 peptide (Rev 53-67) | abrogation of inhibitory effect of Rev 53-67 peptide on IN activity (IN [1]; IN 390 nM, Rev peptide 50 μM) | integrase activity inhibited by Rev-derived peptide, restoration (IN [1]) | abrogation of inhibitory effect of Rev 13-23 peptide on IN activity (IN [1]; IN 390 nM, Rev peptide 50 μM) | interaction with the IN protein itself (IN [2]) | enzymatic activity of HIV-1 IN (IN [1]; in the absence of the inhibitory Rev peptide) | integrase activity inhibited by Rev-derived peptides, restoration (IN [1]; molar ratio Rev:INS peptide 1:5) | integrase activity in presence of Rev-derived peptides (IN [1]; molar ratio Rev:INS peptide 1:10) | abrogation of Rev-GFP inhibition of IN activity (IN [1]; peptide:Rev-GFP 5:1, IN:Rev-GFP 1:200 and 1:400) | cell penetration (HeLa cells) | cell toxicity (HeLa TZM-b1 cells) | stimulation of integration per cell (HIV-1 DNA integration) | viability at 12.5 µM [3] | release of bound Rev-GFP from the complex formed between IN and Rev-GFP (Rev-IN complex) | appearance of viral p24 antigen (HIV-1 [4]) | appearance of infectious viral particles (HIV-1 [5]) | cell death after one cycle of infection [6]
WTHLEGKIILVAVHVA [INr-1] | specifically interacting | not with the Rev 13-23 peptide | interacted | abrogated the inhibitory effect | fully restored |  |  |  |  |  |  |  |  |  |  |  |  |  | 
WGSNFTSTTVKA [INr-2] | specifically interacting | interacted | not with Rev 53-67 |  | fully restored | abrogated the inhibitory effect |  |  |  |  |  |  |  |  |  |  |  |  | 
WTAVQMAVFIHNFKRK [INS] | specifically interacting | interacted | interacted |  |  |  | interact | significantly stimulated | fully restored | stimulate the IN activity | abrogated the inhibitory activities of Rev-GFP | cell-permeable | non-toxic | 2- to 5 fold | ~100% | induces the release of the bound Rev-GFP | Stimulation | stimulation | induce killing of only infected lymphocyte cells
